From patent US20140065103A1 (VERTEX PHARMACEUTICALS INCORPORATED, priority 2010, published 2014)
Read-outs that look alike come from different tables or passages of the source.

Legend:
[1] = system: HCV sub-genomic replicon of genotype 1a in replicon cell line W11.8; assay: microbe, parasite or virus in culture; type: cell-based, Hepatitis C virus; details: read-out: HCV-Replicon-ELISA-1a IC50
[2] = system: Huh-7 ET, Molt-4, DU-145, Hep-G2 and SH-SY5Y cells; assay: [3H]Thymidine incorporation assay (cytotoxicity, CC50); details: [3H]thymidine incorporation; cell line not given
[3] = as above; details: human
[4] = system: HCV replicon (genotype 1b) in Huh7 hepatoma cell line ET; assay: microbe, parasite or virus in culture; type: cell-based, Hepatitis C virus; details: Hepatitis C virus, Huh-7, 96 h, read-out: HCV-Replicon-1b_IC50

Compound	IC50 [1]	CC50 [2]	IC50 ([1]; Hepatitis C virus, W11.8, 96 h)	CC50 at 72 h [3]	IC50 [4]
3-[Cyclohex-3-enyl-(trans-4-methyl-cyclohexanecarbonyl)-amino]-5-(3,3-dimethyl-but-1-ynyl)-thiophene-2-carboxylic acid [Compound 13]	1 to 10 µM	10 to 100 µM	–	–	–
5-(3,3-dimethylbut-1-yn-1-yl)-3-(trans-4-methyl-N-((S)-1-methylsulfonyl)pyrrolidin-3-yl)thiophene-2-carboxylic acid [Compound 68]	< 0.1 µM	> 100 µM	–	–	–
5-(3,3-dimethylbut-1-yn-1-yl)-3-(trans-4-methyl-N—((R)-1-methylsulfonyl)pyrrolidin-3-yl)thiophene-2-carboxylic acid [Compound 69]	< 0.1 µM	> 100 µM	–	–	–
CC[C@@H](C(=O)O)N(c1cc(C#CC(C)(C)C)sc1C(=O)O)C(=O)[C@H]1CC[C@H](C)CC1 (relative stereo) [Compound 41, 3-(N—((S)-1-carboxypropyl)-(4-trans-methylcyclohexane)-carboxamido)-5-(3,3-dimethylbut-1-yn-1-yl)thiophene-2-carboxylic acid]	< 0.1 µM	> 100 µM	–	–	–
CC(=O)N1CC[C@H](N(c2cc(C#CC(C)(C)C)sc2C(=O)O)C(=O)[C@H]2CC[C@H](C)CC2)C1 (stereo in doubt) [Compound 59, 3-(N—((S)-1-Acetylpyrrolidin-3-yl)-4-trans-methylcyclohexanecarboxamido)-5-(3,3-dimethylbut-1-yn-1-yl)thiophene-2-carboxylic acid]	< 0.1 µM	> 100 µM	–	–	–
CC(=O)N1CC[C@@H](N(c2cc(C#CC(C)(C)C)sc2C(=O)O)C(=O)[C@H]2CC[C@H](C)CC2)C1 (stereo in doubt) [Compound 60, 3-(N—((R)-1-Acetylpyrrolidin-3-yl)-4-trans-methylcyclohexane-carboxamido)-5-(3,3-dimethylbut-1-yn-1-yl)thiophene-2-carboxylic acid]	0.1 to 1 µM	> 100 µM	–	–	–
COCCN(c1cc(C#CC(C)(C)C)sc1C(=O)O)C(=O)[C@H]1CC[C@H](C)CC1 [Compound 29, 5-(3,3-Dimethylbut-1-ynyl)-3-(N-(2-methoxyethyl)-4-trans-methylcyclohexanecarboxamido)thiophene-2-carboxylic acid]	< 0.1 µM	10 to 100 µM	–	–	–
COCC(COC)N(c1cc(C#CC(C)(C)C)sc1C(=O)O)C(=O)[C@H]1CC[C@H](C)CC1 [Compound 39, 3-(-N-(1,3-Dimethoxypropan-2-yl)-4-trans-methylcyclohexanecarboxamido)-5-(3,3-dimethylbut-1-yn-1-yl)thiophene-2-carboxylic acid]	0.1 to 1 µM	10 to 100 µM	–	–	–
CC(C)C#Cc1cc(N(C(=O)[C@H]2CC[C@H](C)CC2)C2CCOCC2)c(C(=O)O)s1 [Compound 43, 3-(N-(tetrahydro-2H-pyran-4-yl)-4-trans-methyl-cyclohexanecarboxamido)-5-(3-methylbut-1-yn-1-yl)thiophene-2-carboxylic acid]	< 0.1 µM	10 to 100 µM	–	–	–
Cc1noc(C)c1CN(c1cc(C#CC(C)(C)C)sc1C(=O)O)C(=O)[C@H]1CC[C@H](C)CC1 [Compound 54, 5-(3,3-Dimethylbut-1-yn-1-yl)-3-(N-((3,5-dimethylisoxazol-4-yl)methyl)-4-trans-methylcyclohexanecarboxamido)thiophene-2-carboxylic acid]	< 0.1 µM	10 to 100 µM	–	–	–
CC(C)C#Cc1cc(N(C(=O)[C@H]2CC[C@H](C)CC2)[C@H]2CC[C@@H](OCCO)CC2)c(C(=O)O)s1 [Compound 61, 5-(3-Methylbut-1-yn-1-yl)-3-((N-4-cis-(2-hydroxy)-ethoxycyclohexyl)-(4-trans-methylcyclohexane)carboxamido)thiophene-2-carboxylic acid]	0.1 to 1 µM	10 to 100 µM	–	–	–
CC(C)C#Cc1cc(N(C(=O)[C@H]2CC[C@H](C)CC2)[C@H]2CC[C@H](OCCO)CC2)c(C(=O)O)s1 [Compound 62, 5-(3-Methylbut-1-yn-1-yl)-3-((N-4-trans-(2-hydroxy)-ethoxycyclohexyl)-(4-trans-methylcyclohexane)carboxamido)thiophene-2-carboxylic acid]	< 0.1 µM	10 to 100 µM	–	–	–
CN(C)C(=O)[C@H]1C[C@H](N(c2cc(C#CC(C)(C)C)sc2C(=O)O)C(=O)[C@H]2CC[C@H](C)CC2)C1 [Compound 63, 5-(3,3-Dimethylbut-1-yn-1-yl)-3-(N-(3-trans-(dimethylcarbamoyl)-cyclobutyl)-4-trans-methylcyclohexanecarboxamido)thiophene-2-carboxylic acid]	< 0.1 µM	> 100 µM	–	–	–
CN(C)C[C@H]1C[C@H](N(c2cc(C#CC(C)(C)C)sc2C(=O)O)C(=O)[C@H]2CC[C@H](C)CC2)C1 [Compound 70, 5-(3,3-Dimethylbut-1-yn-1-yl)-3-(trans-4-methyl-N((trans-3-(dimethylamino)methyl)cyclobutyl)cyclohexanecarboxamido)thiophene-2 carboxylic acid]	< 0.1 µM	> 100 µM	–	–	–
CC(CN(c1cc(C#CC(C)(C)C)sc1C(=O)O)C(=O)[C@H]1CC[C@H](C)CC1)n1cccn1 (stereo partly drawn) [Compound 73, 5-(3,3-Dimethylbut-1-ynyl)-3-[(4-trans-methylcyclohexanecarbonyl)-(2-pyrazol-1-ylpropyl)amino]thiophene-2-carboxylic acid]	< 0.1 µM	10 to 100 µM	–	–	–
CC(C)(C)C#Cc1cc(N(Cc2ccccc2)C(=O)[C@H]2CC[C@H](C)CC2)c(C(=O)O)s1 [Compound 74, 3-[Benzyl-(4-trans-methylcyclohexanecarbonyl)amino]-5-(3,3-dimethylbut-1-ynyl)thiophene-2-carboxylic acid]	0.1 to 1 µM	10 to 100 µM	–	–	–
CCc1noc(C(C)N(c2cc(C#CC(C)(C)C)sc2C(=O)O)C(=O)[C@H]2CC[C@H](C)CC2)n1 (stereo partly drawn) [Compound 75]	< 0.1 µM	10 to 100 µM	–	–	–
CC(C)(C)C#Cc1cc(N(C(=O)[C@H]2CC[C@H](C)CC2)[C@H]2C[C@@H](CO)C2)c(C(=O)O)s1 [Compound 76, 5-(3,3-dimethylbut-1-yn-1-yl)-3-(trans-4-methyl-N-(cis-3-(hydroxymethyl)cyclobutyl)cyclohexanecarboxamido)thiophene-2-carboxylic acid]	–	–	< 0.1 µM	> 100 µM	–
Cn1nccc1CN(c1cc(C#CC(C)(C)C)sc1C(=O)O)C(=O)[C@H]1CC[C@H](C)CC1 [Compound 77, 5-(3,3-Dimethylbut-1-ynyl)-3-((trans)-4-methyl-N-((1-methyl-1H-pyrazol-5-yl)methyl)cyclohexanecarboxamido)thiophene-2-carboxylic acid]	–	–	< 0.1 µM	> 100 µM	–
CCc1noc(CN(c2cc(C#CC(C)(C)C)sc2C(=O)O)C(=O)[C@H]2CC[C@H](C)CC2)n1 [Compound 78, 5-(3,3-dimethylbut-1-ynyl)-3-[(3-ethyl-1,2,4-oxadiazol-5-yl)methyl-(4-trans-methylcyclohexanecarbonyl)amino]thiophene-2-carboxylic acid]	< 0.1 µM	10 to 100 µM	–	–	–
CC(C)c1noc(C(C)N(c2cc(C#CC(C)(C)C)sc2C(=O)O)C(=O)[C@H]2CC[C@H](C)CC2)n1 (stereo partly drawn) [Compound 79]	0.1 to 1 µM	10 to 100 µM	–	–	–
CC(Cn1cccn1)N(c1cc(C#CC(C)(C)C)sc1C(=O)O)C(=O)[C@H]1CC[C@H](C)CC1 (stereo partly drawn) [Compound 80, 5-(3,3-Dimethylbut-1-ynyl)-3-[(4-trans-methylcyclohexanecarbonyl)-(1-methyl-2-pyrazol-1-yl-ethyl)amino]thiophene-2-carboxylic acid]	< 0.1 µM	10 to 100 µM	–	–	–
CC(C)(C)C#Cc1cc(N(C(=O)c2ccc(C(F)(F)F)cc2)[C@H]2CC[C@H](O)CC2)c(C(=O)O)s1 [Compound 82, 5-(3,3-Dimethyl-but-1-ynyl)-3-[(trans-4-hydroxy-cyclohexyl)-(4-trifluoromethyl-benzoyl)-amino]thiophene-2-carboxylic acid]	–	–	0.1 to 1 µM	10 to 100 µM	–
Cc1ccc(C(=O)N(c2cc(C#CC(C)(C)C)sc2C(=O)O)[C@H]2CC[C@H](O)CC2)c(C)c1 [Compound 83, 3-[(2,4-Dimethyl-benzoyl)-(trans-4-hydroxy-cyclohexyl)-amino]-5-(3,3-dimethyl-but-1-ynyl)-thiophene-2-carboxylic acid]	–	–	–	–	0.1 to 1 µM
Cc1ccc(C(=O)N(c2cc(C#CC(C)(C)C)sc2C(=O)O)[C@H]2CC[C@H](O)CC2)c(F)c1 [Compound 85, 5-(3,3-Dimethyl-but-1-ynyl)-3-[(2-fluoro-4-methyl-benzoyl)-(trans-4-hydroxy-cyclohexyl)-amino]thiophene-2-carboxylic acid]	–	–	< 0.1 µM	10 to 100 µM	–
Cc1ccc(C(=O)N(c2cc(C#CC(C)(C)C)sc2C(=O)O)[C@H]2CC[C@H](O)CC2)cc1 [Compound 86, 5-(3,3-Dimethyl-but-1-ynyl)-3-[(trans-4-hydroxy-cyclohexyl)-(4-methyl-benzoyl)-amino]-thiophene-2-carboxylic acid]	–	–	< 0.1 µM	10 to 100 µM	–
CC(C)(C)C#Cc1cc(N(C(=O)c2ccc(Cl)cc2Cl)[C@H]2CC[C@H](O)CC2)c(C(=O)O)s1 [Compound 90, 3-[(2,4-Dichloro-benzoyl)-(trans-4-hydroxy-cyclohexyl)-amino]-5-(3,3-dimethyl-but-1-ynyl)-thiophene-2-carboxylic acid]	–	–	0.1 to 1 µM	10 to 100 µM	–
Cc1ccc(C(=O)N(c2cc(C#CC(C)(C)C)sc2C(=O)O)[C@H]2CC[C@H](O)CC2)cc1F [Compound 93, 5-(3,3-Dimethyl-but-1-ynyl)-3-[(3-fluoro-4-methyl-benzoyl)-(trans-4-hydroxy-cyclohexyl)-amino]thiophene-2-carboxylic acid]	–	–	–	–	0.1 to 1 µM
